The values that follow come from US20040096427A1, “Oral gram(+) bacteria and glutamine composition for prevention and/or treatment of gastro-intestinal dysfunctions including inflammation in the gastro-intestinal tract, neonatal necrotizing enterocolitis (nec) and bacterial sepsis” (priority 2003, published 2004).

Assay [1] relates to E. coli. Description: E. coli adherence to gastro-intestinal mucosa. Conditions: inventors' determination.
Assay [2] relates to E. coli. Kind of assay: Caco-2 cell transwell system, E. coli translocation (transcytosis). It counts as cell-based. Conditions: inventors' determination. How it is done: Caco-2 cells derived from human adenocarcinoma cells which show all the morphological and functional characteristics of mature small intestinal epithelial cells after differentiation were employed in a number of experimental systems. Panigrahi et al., Development of an in vitro model for study of non-01 Vibrio cholerae virulence using Caco-2 cells, Infect. Immun., 58:3415-3424 (1990). Caco-2 cells were grown in DMEM supplemented with 1% nonessential amino acids, 1% sodium pyruvate, 10% fetal calf serum, 100 U penicillin and 100 μg of streptomycin/mL in a 5% CO2 atmosphere at 37° C. For transcytosis studies, 0.2×10^6 cells in 0.3 mL medium were seeded on the apical side of 0.6 cm^2 polycarbonate transwell filters/clusters (Costar, Cambridge, Mass.). […]
A Caco-2 cell transwell system was used in accordance with Panigrahi et al. (1990) and Panigrahi et al. (1994) to grow cells on a membrane allowing the measurement of bacteria that translocate. Briefly, Caco-2 cells were grown on polycarbonate filters in transwell cluster and TEER (trans-epithelial electrical resistance) was measured before and after treatment (1) with E. coli alone, (2) in a system deprived of glutamine, (3) in a system deprived of glutamine and later replenished with glutamine, and (4) in a system deprived of glutamine and treated with a Lactobacillus strain ATCC 202195 and glutamine composition. […]

Assay [3] has as its system E. coli. Conditions: cited from earlier work; for tissue injury and inflammatory cell infiltration: rabbit ileal loop model, U.S. Pat. No. 6,132,710.
Assay [4] concerns E. coli. As to conditions: cited from earlier work; for adherence and translocation of Gram (−) organisms such as E. coli: Caco-2 cell culture model, U.S. Pat. No. 6,132,710.

In the case of `NC(=O)CC[C@H](N)C(=O)O` [glutamine], the “effect on E. coli adherence to gastro-intestinal mucosa” value in assay [1] is given as “does not have an effect”. Further, in assay [2], the “effect on translocation of E. coli across mucosal layers” value is recorded as “prevents translocation”. Further, the “protection against Gram (−) bacteria-induced necrotizing enterocolitis” value in assay [3] (instillation of rabbit ileal loops with glutamine, U.S. Pat. No. 5,981,590) is recorded as “protects”. Also, in assay [4] (glutamine supplied from the luminal (apical) side, U.S. Pat. No. 5,981,590), the bacterial translocation result is on record as “reduce bacterial translocation”.

As for Lactobacillus, the “effect on E. coli adherence to gastro-intestinal mucosa” value in assay [1] was “prevents initial steps”.

In the case of Lactobacillus acidophilus, in assay [3], the “tissue injury and inflammatory cell infiltration” value is on record as “reduced”. In assay [4], the “adherence and translocation of Gram (−) organisms such as E. coli” value is “capable of blocking”.

Consider Lactobacillus plantarum, for which the “tissue injury and inflammatory cell infiltration” value in assay [3] is recorded as “reduced”. Also, in assay [4], the “adherence and translocation of Gram (−) organisms such as E. coli” value is recorded as “capable of blocking”.
